From patent publication US12246026B2, “Ganaxolone for use in treatment of status epilepticus” (Marinus Pharmaceuticals, Inc., priority 2019, dated 2025) come the findings set out here.

SMILES strings stand for the structures. “Also recorded” adds a separate entry of the source.

A short description of data set [1]: Human PK in subjects taking strong CYP inducers. To be noted: subjects taking strong CYP inducers (carbamazepine and phenytoin). In kind it is in vivo.
A short description of data set [2]: Safety in the ganaxolone clinical development program. In kind it is in vivo, human. The text has this: In the completed placebo-controlled Phase 1, 2, and 3 studies, 0.32% of subjects who received ganaxolone and 0.46% of subjects who received placebo developed elevated LFTs during the study (>3×ULN AST and/or ALT). A subject participating in the ganaxolone paediatric epilepsy study developed liver failure, which was not considered to be related to ganaxolone. The subject was diagnosed with short bowel syndrome, liver steatosis and IgG-cholangitis, which were considered to be the causal factors for the subject's liver failure. There have been no other cases of Hy's Law or liver failure in the ganaxolone development program. […] After cessation of the dosing, plasma ganaxolone levels are expected to drop rapidly, but it is possible that low sub-therapeutic levels persist for several days as ganaxolone is slowly released from tissues.
Ganaxolone has been administered to infants with severe forms of epilepsy as early as 4 months of age. In clinical trials involving administration of ganaxolone over several weeks, the study drug has been tapered off over a 1 to 2-week period.

The test system of the next data set is healthy subjects. The experiment in a line: Phase 1 IV ganaxolone pharmacodynamics (BIS, EEG) in healthy subjects. In kind it is in vivo, human. The protocol:
A Phase I clinical trial evaluating IV ganaxolone formulation was performed. The clinical trial was designed to investigate the safety, pharmacokinetics, and pharmacodynamics of an intravenous bolus of ganaxolone and continuous intravenous infusion of ganaxolone in 30 healthy subjects. Subjects were administered either an intravenous bolus of ganaxolone in an amount of 10-20 mg for a period of 2 minutes to 1 hour, or an intravenous bolus of ganaxolone in an amount of 6 mg for a period of 5 minutes with a continuous intravenous infusion in an amount of 20 mg/hr for a period of 4 hours.
There was little or no delay between the appearance of drug in plasma and a change in the BIS score.

The nature of data set [3]: Phase 2 Study 1042-SE-2001 open-label group, safety. In kind it is in vivo, human. The protocol: As of 22 Mar. 2019, 5 subjects were enrolled into the Study 1042-SE-2001 open-label group under the original protocol that limits daily Captisol exposure at 35 g/day. […] The initial EEG pattern post-infusion initiation was described by study physicians as a “light” burst suppression that was maintained for several hours in all subjects. […] It was observed that when GNX exposure was lowered (20 mg/hr for 2 hours and ending with 10 mg/hr for the remaining 18 hours on Day 1) in order not to exceed this limit, seizure control could not be maintained and seizure activity (but not SE) re-occurred as evidenced by EEG changes. […] Seizure activity relapsed when plasma concentrations of GNX decreased <500 ng/mL in 4 out of 5 subjects.
Subject 015-101 was a person who presented with focal convulsive SE due to a tumor (Day 1). Recent medical history included convulsive seizures, SE, and Glioblastoma multiform of parietal lobe. Subject was administered levetiracetam for SE and lorazepam, diazepam, dexamethasone, and multiple doses of levetiracetam for seizure control prior to study enrollment. On Day 3, the subject was enrolled in the study and started on IV GNX 30 mg bolus dose plus continuous infusion (85 mg/hr). At the start of dose initiation the subject was alert. […] They were arousable to voice but required continuous stimulation to stay awake or follow commands. They maintained their airway and was able to endorse that the numbness had resolved and reported that they no longer felt twitches. […] The subject had significant direction-changing nystagmus and complained of blurry vision. […] During the next 2 hours the subject remained somnolent and was becoming increasingly restless. As per the protocol, GNX was decreased to 40 mg/hr at 2 hours post dose initiation. Approximately 10 to 15 minutes after the infusion rate was decreased to 40 mg/hr, the subject's arousal improved, they became conversational, and wanted to eat. They had no seizures at this time. Vital signs remained stable. During the GNX infusion, concomitant lacosamide was increased due to increased numbness. […] Once the GNX taper was completed the investigator reported there were no sequelae.
Under the protocol amended with the 50 g/day Captisol limit, 1 subject was enrolled in the open-label study as of 26 Mar. 2019. The subject presented with NCSE due to a tumor. The subject failed 3 second-line IV AEDs and qualified for the study based on the study's inclusion/exclusion criteria. Within 3 minutes after starting the IV GNX infusion, the RSE ceased and seizure protection was maintained for the remaining 48 hours of GNX treatment. […] Pharmacokinetic data were unavailable at the time of this report.

Data set [4] in a line: Emergency IND No. 131,642, GNX plasma concentration. In kind it is in vivo. To be noted: human, intravenous, eIND 131,642, Day 1 regimen delivering 900 mg. As to the method: Under eIND No. 131,642, IV GNX was administered to a subject with SRSE who was unable to maintain status cessation with ketamine and barbiturates. The Day 1 dosage regimen delivered 900 mg of GNX, equating to a 900 to 1200 ng/mL plasma concentration of GNX. As the subject could not be maintained in burst suppression, the clinical team was able to utilize EEG changes to gauge the response (FIG. 11). […] However, due to the dosing plan agreed upon with the FDA with a daily Captisol limit of 63 g/day, the initial 120 mg/hr dose on Day 1 could not be maintained for longer than 1 hour and then had to be decreased to the 30 mg/hr dose. The first seizures re-occurred within 15 to 20 minutes of the change in GNX dose from 120 mg/hr to 30 mg/hr.

A short description of data set [5]: Phase 2 open-label dose range study, safety.
Text: Secondary objectives included assessment of adverse events and evaluation of the pharmacokinetics of IV ganaxolone in patients with SE.
Data set [6] deals with pediatric subject with SRSE. As to the kind of experiment: Emergency IND No. 137,883, IV GNX in pediatric SRSE.

Regarding `CC(=O)[C@H]1CC[C@H]2[C@@H]3CC[C@H]4C[C@](C)(O)CC[C@]4(C)[C@H]3CC[C@]12C` [Ganaxolone, 3α-hydroxy-3β-methyl-5α-pregnan-20-one], the “lowering in overall ganaxolone levels and exposure” value in data set [1] was about 45%. Further, the “withdrawal symptoms after cessation” value in data set [2] (clinical trials, tapered off over 1 to 2 weeks) is on record as “no reports of withdrawal symptoms”. For the same compound, in data set [2] (completed placebo-controlled Phase 1, 2 and 3 studies), the “subjects who developed elevated LFTs (>3×ULN AST and/or ALT)” value was 0.32%. For the same compound, in data set [2] (development program overall), the “trends in ECG intervals, vital signs, physical or neurological examinations” value is listed as “no clinically significant trends”. Further, the “excretion to breast milk” value in data set [2] (ganaxolone and its metabolites) is given as “excreted to breast milk”. Besides, the “EEG and BIS changes” value in the data set on healthy subjects (Phase 1, FIG. 1) is recorded as “consistent with sedative/anesthetic effects”. For the same compound, the “bispectral index (BIS) score versus plasma concentration” value with healthy subjects (healthy subjects, IV) is “higher plasma concentration was associated with lower BIS scores”. The “safety finding related to GNX” value in data set [3] (1 subject, amended protocol, concomitant AEDs) is listed as “increased sedation”. Besides, in data set [3] (5 subjects), the “GNX-related cardiovascular events requiring pharmacological intervention” value is “no GNX-related cardiovascular events that required pharmacological intervention were observed” and the “intubation as a direct result of GNX therapy” value is recorded as “no subjects had to be intubated as a direct result of GNX therapy”. For the same compound, the “adverse observations during infusion” value in data set [3] (Subject 015-101, 30 mg bolus, 85 mg/hr, listed as GNX) is recorded as “significant somnolence; also recorded: urinary retention with urgency”. Also, the concentration at 1 day in data set [4] is 900 to 1200 ng/mL. Further, the “tolerability of GNX infusion” value in data set [5] (17 RSE patients) is given as “generally well-tolerated”. The “participants with SAEs (severe sedation) assessed as related to GNX, leading to early discontinuation” value in data set [5] (concomitant CNS depressant medications) is 2 participants. In data set [6] (eIND 137,883), the “duration of suppressed EEG background” value is recorded as “approximately 2 hours” and the “finding on examination leading to stop of infusion” value is “nonreactive pupils”. Besides, in data set [6] (eIND 137,883, concomitant pentobarbital 2.25 mg/kg/hr), the “EEG at the time of GNX bolus infusion” value is on record as “continuous suppressed background”.
